{
  "source": "PubChem BioAssay (NCI)",
  "assay_in_all_cases": "inhibition of tumour cell growth, NCI panel, 48 h",
  "key": {"[1]": {"test_system": "LOX IMVI melanoma"}, "[2]": {"test_system": "NCI-H226 lung"}, "[3]": {"test_system": "HT29 colon"}, "[4]": {"test_system": "K-562 leukemia"}, "[5]": {"test_system": "SK-MEL-28 melanoma"}, "[6]": {"test_system": "SK-MEL-5 melanoma"}, "[7]": {"test_system": "PC-3 prostate"}, "[8]": {"test_system": "EKVX NSCLC"}, "[9]": {"test_system": "NCI-H460 lung"}, "[10]": {"test_system": "HL-60(TB) leukemia"}, "[11]": {"test_system": "TK-10 renal"}, "[12]": {"test_system": "OVCAR-8 ovarian"}, "[13]": {"test_system": "HCT-15 colon"}, "[14]": {"test_system": "SF-268 CNS"}, "[15]": {"test_system": "T-47D breast"}, "[16]": {"test_system": "UACC-62 melanoma"}, "[17]": {"test_system": "HOP-62 NSCLC"}, "[18]": {"test_system": "SF-295 CNS"}, "[19]": {"test_system": "NCI-H522 lung"}, "[20]": {"test_system": "A549 NSCLC"}, "[21]": {"test_system": "SNB-19 CNS"}, "[22]": {"test_system": "HCT-116 colon"}, "[23]": {"test_system": "BT-549 breast"}, "[24]": {"test_system": "M14 melanoma"}, "[25]": {"test_system": "SF-539 CNS"}, "[26]": {"test_system": "NCI-H23 lung"}, "[27]": {"test_system": "MCF7 breast"}, "[28]": {"test_system": "MALME-3M melanoma"}, "[29]": {"test_system": "IGROV1 ovarian"}, "[30]": {"test_system": "RXF 393 renal"}, "[31]": {"test_system": "SN12C renal"}, "[32]": {"test_system": "HOP-92 NSCLC"}, "[33]": {"test_system": "A498 renal"}, "[34]": {"test_system": "HCC-2998 colon"}, "[35]": {"test_system": "RPMI-8226 leukemia"}, "[36]": {"test_system": "SR leukemia"}, "[37]": {"test_system": "MDA-MB-231 breast"}, "[38]": {"test_system": "MDA-N"}, "[39]": {"test_system": "SNB-75 CNS"}, "[40]": {"test_system": "UO-31 renal"}, "[41]": {"test_system": "HS 578T breast"}, "[42]": {"test_system": "OVCAR-4 ovarian"}, "[43]": {"test_system": "OVCAR-5 ovarian"}, "[44]": {"test_system": "DU-145 prostate"}, "[45]": {"test_system": "KM12 colon"}, "[46]": {"test_system": "SK-MEL-2 melanoma"}, "[47]": {"test_system": "COLO 205 colon"}, "[48]": {"test_system": "SW-620 colon"}, "[49]": {"test_system": "CAKI-1 renal"}, "[50]": {"test_system": "NCI/ADR-RES ovarian"}, "[51]": {"test_system": "MDA-MB-435"}, "[52]": {"test_system": "U251 CNS"}, "[53]": {"test_system": "UACC-257 melanoma"}, "[54]": {"test_system": "786-0 renal"}, "[55]": {"test_system": "ACHN renal"}, "[56]": {"test_system": "SK-OV-3 ovarian"}, "[57]": {"test_system": "MOLT-4 leukemia"}, "[58]": {"test_system": "OVCAR-3 ovarian"}},
  "note": "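Assay format: 96-well plates, 48-hour exposure. TGI denotes the concentration required for complete inhibition of growth.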",
  "data": [
    {"smiles": "CC(C)c1ccc(O)c(O)c(=O)c1", "note": "(tested in a mixture with another compound)", "values": [
      {"measurement": "TGI", "setting": "[1]", "value": 27.2, "unit": "µM"},
      {"measurement": "TGI", "setting": "[2]", "value": "> 23.4", "unit": "µM"},
      {"measurement": "TGI", "setting": "[3]", "value": "> 100", "unit": "µM"},
      {"measurement": "TGI", "setting": "[4]", "value": "> 100", "unit": "µM"},
      {"measurement": "TGI", "setting": "[5]", "value": 23.8, "unit": "µM"},
      {"measurement": "TGI", "setting": "[6]", "value": 8.13, "unit": "µM"},
      {"measurement": "TGI", "setting": "[7]", "value": 15.6, "unit": "µM"},
      {"measurement": "TGI", "setting": "[8]", "value": 47.7, "unit": "µM"},
      {"measurement": "TGI", "setting": "[9]", "value": 0.899, "unit": "µM"},
      {"measurement": "TGI", "setting": "[10]", "value": 2.39, "unit": "µM"},
      {"measurement": "TGI", "setting": "[11]", "value": 9.6, "unit": "µM"},
      {"measurement": "TGI", "setting": "[12]", "value": "> 100", "unit": "µM"},
      {"measurement": "TGI", "setting": "[13]", "value": "> 100", "unit": "µM"},
      {"measurement": "TGI", "setting": "[14]", "value": "> 61.5", "unit": "µM"},
      {"measurement": "TGI", "setting": "[15]", "value": "> 68.6", "unit": "µM"},
      {"measurement": "TGI", "setting": "[16]", "value": 12.1, "unit": "µM"},
      {"measurement": "TGI", "setting": "[17]", "value": "> 100", "unit": "µM"},
      {"measurement": "TGI", "setting": "[18]", "value": "> 100", "unit": "µM"},
      {"measurement": "TGI", "setting": "[19]", "value": 17.5, "unit": "µM"},
      {"measurement": "TGI", "setting": "[20]", "value": "> 100", "unit": "µM"},
      {"measurement": "TGI", "setting": "[21]", "value": "> 100", "unit": "µM"},
      {"measurement": "TGI", "setting": "[22]", "value": "> 42.9", "unit": "µM"},
      {"measurement": "TGI", "setting": "[23]", "value": 98.9, "unit": "µM"},
      {"measurement": "TGI", "setting": "[24]", "value": 15.5, "unit": "µM"},
      {"measurement": "TGI", "setting": "[25]", "value": "> 21.1", "unit": "µM"},
      {"measurement": "TGI", "setting": "[26]", "value": "> 26.3", "unit": "µM"},
      {"measurement": "TGI", "setting": "[27]", "value": "> 100", "unit": "µM"},
      {"measurement": "TGI", "setting": "[28]", "value": 5.44, "unit": "µM"},
      {"measurement": "TGI", "setting": "[29]", "value": "> 54.9", "unit": "µM"},
      {"measurement": "TGI", "setting": "[30]", "value": 12, "unit": "µM"},
      {"measurement": "TGI", "setting": "[31]", "value": "> 100", "unit": "µM"},
      {"measurement": "TGI", "setting": "[32]", "value": "> 83", "unit": "µM"},
      {"measurement": "TGI", "setting": "[33]", "value": 25.2, "unit": "µM"},
      {"measurement": "TGI", "setting": "[34]", "value": 4.04, "unit": "µM"},
      {"measurement": "TGI", "setting": "[35]", "value": 9.79, "unit": "µM"},
      {"measurement": "TGI", "setting": "[36]", "value": 4.02, "unit": "µM"},
      {"measurement": "TGI", "setting": "[37]", "value": 26.7, "unit": "µM"},
      {"measurement": "TGI", "setting": "[38]", "value": "> 100", "unit": "µM"},
      {"measurement": "TGI", "setting": "[39]", "value": 22.8, "unit": "µM"},
      {"measurement": "TGI", "setting": "[40]", "value": "> 41.2", "unit": "µM"},
      {"measurement": "TGI", "setting": "[41]", "value": 69.7, "unit": "µM"},
      {"measurement": "TGI", "setting": "[42]", "value": "> 100", "unit": "µM"},
      {"measurement": "TGI", "setting": "[43]", "value": "> 100", "unit": "µM"},
      {"measurement": "TGI", "setting": "[44]", "value": 33.7, "unit": "µM"},
      {"measurement": "TGI", "setting": "[45]", "value": "> 82.1", "unit": "µM"},
      {"measurement": "TGI", "setting": "[46]", "value": 3.02, "unit": "µM"},
      {"measurement": "TGI", "setting": "[47]", "value": 17.1, "unit": "µM"},
      {"measurement": "TGI", "setting": "[48]", "value": "> 100", "unit": "µM"},
      {"measurement": "TGI", "setting": "[49]", "value": "> 52.2", "unit": "µM"},
      {"measurement": "TGI", "setting": "[50]", "value": "> 36.9", "unit": "µM"},
      {"measurement": "TGI", "setting": "[51]", "value": "> 100", "unit": "µM"},
      {"measurement": "TGI", "setting": "[52]", "value": 4.98, "unit": "µM"},
      {"measurement": "TGI", "setting": "[53]", "value": 2.03, "unit": "µM"},
      {"measurement": "TGI", "setting": "[54]", "value": "> 100", "unit": "µM"},
      {"measurement": "TGI", "setting": "[55]", "value": 13, "unit": "µM"},
      {"measurement": "TGI", "setting": "[56]", "value": "> 100", "unit": "µM"},
      {"measurement": "TGI", "setting": "[57]", "value": 5.53, "unit": "µM"},
      {"measurement": "TGI", "setting": "[58]", "value": "> 100", "unit": "µM"}
    ]}
  ]
}
